Series [1] is described as follows: Ocular bioavailability following intravenous administration (Example 2). Type of series: in vivo, New Zealand White rabbit. Particulars: rabbit; 15 mg/kg i.v.; FIG. 3. From the text:
This study was designed to model the ocular bioavailability of mecamylamine when administered systemically. Rabbit eyes are the preferred model for in vivo modeling of ocular drugs, however, the rabbit is not the subject of choice for modeling oral bioavailability. However, systemic administration does emulate orally administered mecamylamine to a reasonable approximation since mecamylamine has rapid absorption and high oral bioavailability. Therefore, intravenous injection was used to model ocular bioavailability of mecamylamine administered systemically, in order to determine the deposition of mecamylamine to the plasma, vitreous and posterior tissues (retina/choroid) of the eye from the blood.
The study comprised 2 groups (each N=6, 12 rabbits total) of male NZW (New Zealand White) rabbits weighing approximately 2.5-3 kg and obtained from Kralek Farms (Turlock, Calif.). Mecamylamine solution, prepared as described in Example 1, at a dose of 15 mg/kg was delivered via i.v. infusion as either a short infusion (1 hr) or slow infusion (6 hr) in rabbits sedated by ketamine/xylazine, with the slow infusion intended to model controlled systemic release of the mecamylamine.
For both groups, samples of the vitreous(≧0.1 ml) and plasma were withdrawn at 6 time points: pre-dose, 30 min, 1, 2, 4, and 6 hr. At 6 hours, all animals were sacrificed and vitreous and retinal tissues were collected. The total amount of mecamylamine administered during each infusion was the same, based on the weight of the individual rabbit.
The concentrations of mecamylamine present in the various samples were analyzed as described in Example 6, below.

Series [2] is described as follows: Single- and multiple-dose rabbit ocular pharmacokinetics (Example 7). Type of series: in vivo, Dutch-belted rabbit. The protocol: Dutch-belted male rabbits (Covance, Denver, Pa.) aged 2.5 to 4.5 months and with weights of 1.5 to 2.5 kg were given a 3% solution of mecamylamine hydrochloride (polymer-free solution) by ocular installation either as a single dose or 6 doses (50 microliters per dose), approximately 1.5 hours apart. Serial blood samples (approximately 0.5 mL each) were collected by direct venipuncture from a marginal ear vein into a blood collection tube containing EDTA as anticoagulant from various animal groups at 0.5 hours post dose, 2 hours post dose. A terminal blood sample was obtained from all animals just prior to euthanasia. Animals were euthanized 1, 3 or 6 hours after administration of the drug solution. Ocular tissues (listed in Table 7) were obtained after euthanasia.
The concentration of mecamylamine in plasma and ocular tissues was measured using an LC MS/MS method as described in Example 6.

For series [3], the system named is eyes of New Zealand White rabbits. The experiment in a line: Pupil diameter, pupillary response and mortality observations after topical ocular instillation in rabbits (Example 10). Particulars: rabbit; 2 drops of 50 μL topically. The protocol: The objective of this study was to evaluate the ocular pharmacokinetics of a 2% Mecamylamine in a GELRITE solution up to 6 hours following topical instillation into the eyes of New Zealand White rabbits. Nine New Zealand White female rabbits of minimum age of 9 weeks and weight 2-3 kg were obtained from The Rabbit Source (Ramona, Calif.) were used in the study.
On day 1, 2 drops of 50 μL of mecamylamine or vehicle were administered topically into the appropriate eye(s) of each animal as described in Table 13. The time of each dose administration was recorded.

A further series deals with healthy adults. The experiment in a line: Phase 1 ocular and systemic safety of mecamylamine ophthalmic solution (Example 11). Type of series: in vivo. The following applies: human. The text has this: A phase 1 study entitled: “A Phase 1, Double-Masked, Randomized, 1-Day and 14-Day Escalating Dose Study to Assess the Ocular and Systemic Safety of Mecamylamine Ophthalmic Solution” was initiated in the United States in healthy adults. The safety objectives of this study were to evaluate the ocular and systemic safety of 4 concentrations of mecamylamine ophthalmic solution following 1-day (administered twice) and 14-day (BID) administration. The dose levels of mecamylamine ophthalmic solution evaluated were 0.03%, 0.1%, 0.3%, and 1%. A summary of the composition of the mecamylamine ophthalmic solution and placebo formulation is shown below in Table 7.
In the 1-day portion of the study, 10 subjects in each group were dosed in a single eye on two occasions with 6 hours between dosing. […] Subjects were evaluated for local (ocular) safety and tolerability based upon evaluation of ocular symptoms, ocular comfort, best-corrected visual acuity, biomicroscopy with fluorescein staining, measurement of intraocular pressure (IOP) by Goldman applanation tonometry, ophthalmoscopy, pupil size, and Schirmer's Test. They were also evaluated for systemic safety based upon assessment of physical examination, 12-lead ECG, vital signs, adverse events, hematology, clinical chemistry, and, urinalysis.

For series [4], the system named is VEGF-induced endothelial tube formation. As to the kind of experiment: VEGF-induced endothelial tube formation in vitro. Type of series: cell-based.
[5] abbreviates: rabbit, 3% solution, 1 hour to 6 hours after dosing.

For `CNC1(C)C2CCC(C2)C1(C)C` (centres unmarked) [mecamylamine, N-2,3,3-tetramethylbicyclo(2.2.1)heptan-2-amine], the “amount of mecamylamine reaching the retina/choroid, long infusion versus short infusion” value in series [1] is “more than 2 fold”. Moreover, in series [2] (male, Dutch-belted, retina/choroid and plasma, topical, 50 µL of 3% solution per dose, rabbit, 3% solution, read-out: ratio of mecamylamine concentration in the retina/choroid to the plasma), the Kp lay in the range of 37 to 147. Moreover, the Plasma levels in series [2] (rabbit, 3% solution) is listed as ≤ 50 ng/mL. Also, in series [2] (setting [5]), the “Mean peak levels in aqueous humor” value is given as 310 to 920 ng/mL and the “Mean peak levels in the retina/choroid” value lay in the range of 171 to 510 ng/g. For the same molecule, in series [2] (rabbit, 1 hour after 6 hourly doses), the “mecamylamine concentration in the retina/choroid after 6 hourly doses relative to single dose” value was “five-fold”. Moreover, in series [2] (rabbits, topical ocular, single dose and multi-dose studies), the “mean maximum concentration of mecamylamine detected in plasma” value is reported as “less than 70 ng/mL”. Also, the mortality result in series [3] is given as “no mortality”. Also, in the series on healthy adults, the best-corrected visual acuity entry is reported as “no change in best corrected visual acuity” and the pupil size result was “none of the subjects tested showing an increase in pupil diameter”. Moreover, the “VEGF-induced endothelial tube formation” value in series [4] is recorded as “inhibited”.

Values taken from patent US20070167526A1, “Topical mecamylamine formulations for ocular administration and uses thereof” (priority 2005, published 2007).
